We go through twelve compounds from patent US20260274892A1, “MACROCYCLIC BROAD SPECTRUM ANTIBIOTICS” (RQx Pharmaceuticals, Inc., priority 2017, published 2026).

The subject of test [1] is Escherichia coli ATCC 25922. As to the kind of experiment: Minimum inhibitory concentration (MIC), CLSI broth micro-dilution, E. coli. In kind it is cell-based. Particulars: Escherichia coli, ATCC25922, 22 h, Table 6, cation adjusted Mueller Hinton Broth + 0.002% Tween-80, 35° C. The method in brief:
(§1)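 Colonies grown 20 h at 35° C on Trypticase Soy agar (MRSA) or Luria agar (E. coli) were suspended in cation-adjusted Mueller Hinton broth with 0.002% Tween-80. Suspensions were added at OD600 0.0005 to 10-point twofold compound dilutions, then incubated 22 h at 35° C.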
On the technique in general: Dilution methods test growth across graded concentrations, often in twofold steps.

The test system of test [2] is Methicillin Resistant Staphylococcus aureus strain USA 200. As to the kind of experiment: Minimum inhibitory concentration (MIC), CLSI broth micro-dilution, S. aureus. Particulars: Staphylococcus aureus, MRSA / USA200; Table 6; MRSA USA 200; cation adjusted Mueller Hinton Broth + 0.002% Tween-80; 35° C., 22 hours. Type of test: cell-based. The method in brief:
as §1

Broadly, the MIC is the lowest concentration found to suppress growth. `CCC(=Cc1ccc(-c2nc(C)c(C(=O)N[C@@H](CCN)C(=O)N(C)[C@@H]3C(=O)N[C@@H](C)C(=O)N[C@H](C(=O)NCC#N)Cc4ccc(OCCN)c(c4)-c4cc3ccc4OCCN)c(C)n2)cc1)CC` (racemic) [Compound 276, rac-(8S,11S,14S)-3,18-bis(2-aminoethoxy)-N-(cyanomethyl)-11-methyl-14-[methyl-[rac-(2S)-4-amino-2-[[2-[4-(2-ethylbut-1-enyl)phenyl]-4,6-dimethyl-pyrimidine-5-carbonyl]amino]butanoyl]amino]-10,13-dioxo-9,12-diazatricyclo[13.3.1.12,6]icosa-1(18),2(20),3,5,15(19),16-hexaene-8-carboxamide]: the values for the MIC in test [1] and in test [2] were 0.063 µM and 0.016 µM, respectively.

As for `CCC(CC)Cc1ccc(-c2nc(C)c(C(=O)N[C@@H](CCN)C(=O)N(C)[C@@H]3C(=O)N[C@@H](C)C(=O)N[C@H](C(=O)NCC#N)Cc4ccc(OCCN)c(c4)-c4cc3ccc4OCCN)c(C)n2)cc1` (racemic) [Compound 277, rac-(8S,11S,14S)-3,18-bis(2-aminoethoxy)-N-(cyanomethyl)-11-methyl-14-[methyl-[rac-(2S)-4-amino-2-[[2-[4-(2-ethylbutyl)phenyl]-4,6-dimethyl-pyrimidine-5-carbonyl]amino]butanoyl]amino]-10,13-dioxo-9,12-diazatricyclo[13.3.1.12,6]icosa-1(18),2(20),3,5,15(19),16-hexaene-8-carboxamide], the MIC in test [1] was determined as 0.13 µM; in test [2], 0.016 µM.

On to `CCC/C=C/c1ccc(-c2nc(C)c(C(=O)N[C@@H](CCN)C(=O)N(C)[C@@H]3C(=O)N[C@@H](C)C(=O)N[C@H](C(=O)NCC#N)Cc4ccc(OCCN)c(c4)-c4cc3ccc4OCCN)c(C)n2)cc1` (racemic) [Compound 278, rac-(8S,11S,14S)-3,18-bis(2-aminoethoxy)-N-(cyanomethyl)-11-methyl-14-[methyl-[rac-(2S)-4-amino-2-[[4,6-dimethyl-2-[4-[rac-(E)-pent-1-enyl]phenyl]pyrimidine-5-carbonyl]amino]butanoyl]amino]-10,13-dioxo-9,12-diazatricyclo[13.3.1.12,6]icosa-1(18),2(20),3,5,15(19),16-hexaene-8-carboxamide], for which the figures for the MIC in test [1] and in test [2] were 0.094 µM and 0.0078 µM, respectively.

Take `Cc1nc(-c2ccc(C3(C)CC3)cc2)nc(C)c1C(=O)N[C@@H](CCN)C(=O)N(C)[C@@H]1C(=O)N[C@@H](C)C(=O)N[C@H](C(=O)NCC#N)Cc2ccc(OCCN)c(c2)-c2cc1ccc2OCCN` (racemic) [Compound 280, rac-(8S,11S,14S)-3,18-bis(2-aminoethoxy)-N-(cyanomethyl)-11-methyl-14-[methyl-[rac-(2S)-4-amino-2-[[4,6-dimethyl-2-[4-(1-methylcyclopropyl)phenyl]pyrimidine-5-carbonyl]amino]butanoyl]amino]-10,13-dioxo-9,12-diazatricyclo[13.3.1.12,6]icosa-1(18),2(20),3,5,15(19),16-hexaene-8-carboxamide]: the MIC came to 0.13 µM in test [1] and 0.031 µM in test [2].

With `CCC1(c2ccc(-c3nc(C)c(C(=O)N[C@@H](CCN)C(=O)N(C)[C@@H]4C(=O)N[C@@H](C)C(=O)N[C@H](C(=O)NCC#N)Cc5ccc(OCCN)c(c5)-c5cc4ccc5OCCN)c(C)n3)cc2)CC1` (racemic) [Compound 281, rac-(8S,11S,14S)-3,18-bis(2-aminoethoxy)-N-(cyanomethyl)-11-methyl-14-[methyl-[rac-(2S)-4-amino-2-[[2-[4-(1-ethylcyclopropyl)phenyl]-4,6-dimethyl-pyrimidine-5-carbonyl]amino]butanoyl]amino]-10,13-dioxo-9,12-diazatricyclo[13.3.1.12,6]icosa-1(18),2(20),3,5,15(19),16-hexaene-8-carboxamide], the MIC was determined as 0.065 µM in test [1] and 0.016 µM in test [2].

`CCCC1(c2ccc(-c3nc(C)c(C(=O)N[C@@H](CCN)C(=O)N(C)[C@@H]4C(=O)N[C@@H](C)C(=O)N[C@H](C(=O)NCC#N)Cc5ccc(OCCN)c(c5)-c5cc4ccc5OCCN)c(C)n3)cc2)CC1` (racemic) [Compound 282, rac-(8S,11S,14S)-3,18-bis(2-aminoethoxy)-N-(cyanomethyl)-11-methyl-14-[methyl-[rac-(2S)-4-amino-2-[[4,6-dimethyl-2-[4-(1-propylcyclopropyl)phenyl]pyrimidine-5-carbonyl]amino]butanoyl]amino]-10,13-dioxo-9,12-diazatricyclo[13.3.1.12,6]icosa-1(18),2(20),3,5,15(19),16-hexaene-8-carboxamide]: the MIC amounted to 0.094 µM in test [1] and 0.016 µM in test [2].

On to `CCCCC1(c2ccc(-c3nc(C)c(C(=O)N[C@@H](CCN)C(=O)N(C)[C@@H]4C(=O)N[C@@H](C)C(=O)N[C@H](C(=O)NCC#N)Cc5ccc(OCCN)c(c5)-c5cc4ccc5OCCN)c(C)n3)cc2)CC1` (racemic) [Compound 283, rac-(8S,11S,14S)-3,18-bis(2-aminoethoxy)-N-(cyanomethyl)-11-methyl-14-[methyl-[rac-(2S)-4-amino-2-[[2-[4-(1-butylcyclopropyl)phenyl]-4,6-dimethyl-pyrimidine-5-carbonyl]amino]butanoyl]amino]-10,13-dioxo-9,12-diazatricyclo[13.3.1.12,6]icosa-1(18),2(20),3,5,15(19),16-hexaene-8-carboxamide], for which the MIC came out at 0.094 µM in test [1] and 0.012 µM in test [2].

Turning to `Cc1nc(-c2ccc3c(c2)CCC32CC2)nc(C)c1C(=O)N[C@@H](CCN)C(=O)N(C)[C@@H]1C(=O)N[C@@H](C)C(=O)N[C@H](C(=O)NCC#N)Cc2ccc(OCCN)c(c2)-c2cc1ccc2OCCN` (racemic) [Compound 284, rac-(8S,11S,14S)-3,18-bis(2-aminoethoxy)-N-(cyanomethyl)-11-methyl-14-[methyl-[rac-(2S)-4-amino-2-[(4,6-dimethyl-2-spiro[cyclopropane-1,1′-indane]-5′-yl-pyrimidine-5-carbonyl)amino]butanoyl]amino]-10,13-dioxo-9,12-diazatricyclo[13.3.1.12,6]icosa-1(18),2(20),3,5,15(19),16-hexaene-8-carboxamide], the MIC in test [1] is 0.13 µM; in test [2] it was 0.016 µM.

Take `Cc1nc(-c2ccc3c(c2)OCCC32CC2)nc(C)c1C(=O)N[C@@H](CCN)C(=O)N(C)[C@@H]1C(=O)N[C@@H](C)C(=O)N[C@H](C(=O)NCC#N)Cc2ccc(OCCN)c(c2)-c2cc1ccc2OCCN` (racemic) [Compound 285, rac-(8S,11S,14S)-3,18-bis(2-aminoethoxy)-N-(cyanomethyl)-11-methyl-14-[methyl-[rac-(2S)-4-amino-2-[(4,6-dimethyl-2-spiro[chromane-4,1′-cyclopropane]-7-yl-pyrimidine-5-carbonyl)amino]butanoyl]amino]-10,13-dioxo-9,12-diazatricyclo[13.3.1.12,6]icosa-1(18),2(20),3,5,15(19),16-hexaene-8-carboxamide]: the MIC in test [1] is 0.19 µM; in test [2], 0.047 µM.

As to `Cc1nc(Cc2ccc(C(C)(C)C)cc2)nc(C)c1C(=O)N[C@@H](CCN)C(=O)N(C)[C@@H]1C(=O)N[C@@H](C)C(=O)N[C@H](C(=O)NCC#N)Cc2ccc(OCCN)c(c2)-c2cc1ccc2OCCN` (racemic) [Compound 287, rac-(8S,11S,14S)-3,18-bis(2-aminoethoxy)-N-(cyanomethyl)-11-methyl-14-[methyl-[rac-(2S)-4-amino-2-[[2-[(4-tert-butylphenyl)methyl]-4,6-dimethyl-pyrimidine-5-carbonyl]amino]butanoyl]amino]-10,13-dioxo-9,12-diazatricyclo[13.3.1.12,6]icosa-1(18),2(20),3,5,15(19),16-hexaene-8-carboxamide], the MIC in test [1] was determined as 1 µM; in test [2], 0.065 µM.

Turning to `Cc1nc(C(C)(C)c2ccc(C(C)(C)C)cc2)nc(C)c1C(=O)N[C@@H](CCN)C(=O)N(C)[C@@H]1C(=O)N[C@@H](C)C(=O)N[C@H](C(=O)NCC#N)Cc2ccc(OCCN)c(c2)-c2cc1ccc2OCCN` (racemic) [Compound 288, rac-(8S,11S,14S)-3,18-bis(2-aminoethoxy)-N-(cyanomethyl)-11-methyl-14-[methyl-[rac-(2S)-4-amino-2-[[2-[1-(4-tert-butylphenyl)-1-methyl-ethyl]-4,6-dimethyl-pyrimidine-5-carbonyl]amino]butanoyl]amino]-10,13-dioxo-9,12-diazatricyclo[13.3.1.12,6]icosa-1(18),2(20),3,5,15(19),16-hexaene-8-carboxamide], the MIC in test [1] is 1.5 µM; in test [2] it was 0.023 µM.

Turning to `Cc1nc(C(F)(F)c2ccc(C(C)(C)C)cc2)nc(C)c1C(=O)N[C@@H](CCN)C(=O)N(C)[C@@H]1C(=O)N[C@@H](C)C(=O)N[C@H](C(=O)NCC#N)Cc2ccc(OCCN)c(c2)-c2cc1ccc2OCCN` (racemic) [Compound 289, rac-(8S,11S,14S)-3,18-bis(2-aminoethoxy)-N-(cyanomethyl)-11-methyl-14-[methyl-[rac-(2S)-4-amino-2-[[2-[(4-tert-butylphenyl)-difluoro-methyl]-4,6-dimethyl-pyrimidine-5-carbonyl]amino]butanoyl]amino]-10,13-dioxo-9,12-diazatricyclo[13.3.1.12,6]icosa-1(18),2(20),3,5,15(19),16-hexaene-8-carboxamide], the MIC in test [1] came to 0.75 µM; in test [2], 0.016 µM.
